Laboratory results reported in patent US20240002326A1, “COMPOUNDS AND USE THEREOF IN METHODS OF TREATMENT” (The University of Queensland, priority 2016, published 2024).
Entries after “also recorded” stand apart in the source; their conditions may differ.

Target: SOX18-RBPJ interaction (Homo sapiens (Human), UniProt P35713)
Experiment: ALPHAScreen SOX18-RBPJ protein-protein interaction
Assay type: binding
Description: Proteins were genetically encoded with enhanced GFP (GFP), mCherry and cMyc (myc) tags, and cloned into cell free expression Gateway destination vectors: N-terminal GFP tagged (pCellFree_G03), N-terminal Cherry-cMyc (pCellFree_G07) and C-terminal Cherry-cMyc tagged (pCellFree_G08) (Gagoski et al., 2015). Human RBPJ (BC020780) and MEF2C (BC026341) Open Reading Frames (ORFs) were sourced from the Human ORFeome collection, version 1.1 and 5.1, and the Human Orfeome collaboration OCAA collection (Open Biosystems), as previously described (Sierecki et al., 2013) and cloned at the ARVEC facility, UQ Diamantina Institute. The entry clones pDONOR223 or pENTR201 vectors were exchanged with the ccdB gene in the expression plasmid by LR recombination (Life Technologies, Australia). The full-length human SOX18 gene was synthesized and the transfer to vectors was realized using Gateway PCR cloning. Translation competent Leishmania tarentolae extract (LTE) was prepared as previously described (Kovtun et al., 2011, Mureev et al., 2009). Protein pairs were co-expressed by adding 30 nM of GFP template plasmid and 60 nM of Cherry template plasmid to LTE and incubating for 3 hours at 27° C.
ALPHAScreen was performed as previously described (Sierecki et al., 2014, Sierecki et al., 2013). […] Percentage of interaction was calculated as: (I_cpd/I_DMSO)×100 from 3 independent experiments.
ALPHAScreen was performed as previously described (Sierecki et al., 2014, Sierecki et al., 2013), using the cMyc detection kit and Proxiplate-384 Plus plates (PerkinElmer). The LTE lysate co-expressing the proteins of interest was diluted in buffer A (25 mM HEPES, 50 mM NaCl). For the assay, 12.5 μL (0.4 μg) of Anti-cMyc coated Acceptor Beads in buffer B (25 mM HEPES, 50 mM NaCl, 0.001% NP40, 0.001% casein) were aliquoted into each well. This was followed by the addition of 2 μL of diluted sample, at different concentration, and 2 μL of biotin labeled GFP-Nanotrap in buffer A. The plates were incubated for 45 min at room temperature, then adding 2 μL (0.4 μg) of streptavidin-coated Donor Beads diluted in buffer A, and incubation in the dark for 45 min at room temperature. The ALPHAScreen signal was measured on an Envision Plate Reader (PerkinElmer), using manufacturer's recommended settings (λexc=680/30 nm for 0.18 s, λem=570/100 nm after 37 ms). The resulting bell-shaped curve is an indication of a positive interaction, while a flat line reflects a lack of interaction between the proteins. The measurement of each protein pair was repeated in triplicate.
I is the highest signal level (top of the hook effect curve) and Ineg is the lowest (background) signal level. The signals were normalized to the Iref signal obtained for the strongest interaction. […] Percentage of interaction was calculated as: […]
The ALPHA-Screen Assay was performed as previously described (Sierecki et al. 2014), using the cMyc detection kit and Proxiplate-384 Plus plates (PerkinElmer). A serial dilution of each sample was measured. The LTE lysate co-expressing the proteins of interest was diluted in buffer A (25 mM HEPES, 50 mM NaCl). For the assay, 12.5 μL (0.4 μg) of Anti-cMyc coated Acceptor Beads in buffer B (25 mM HEPES, 50 mM NaCl, 0.001% NP40, casein) were aliquoted into each well. This was followed by the addition of 2 μL of diluted sample and 2 μL of biotin labeled GFP-Nanotrap in buffer A. The plate was incubated for 45 min at RT. Afterward, 2 μL (0.4 μg) of Streptavidin coated Donor Beads diluted in buffer A, were added, followed by incubation in the dark for 45 min at RT. The ALPHA-Screen signal was obtained on an Envision Multilabel Plate Reader (PerkinElmer), using the manufacturer's recommended settings (excitation: 680/30 nm for 0.18 s, emission: 570/100 nm after 37 ms). The resulting bell-shaped curve is an indication of a positive interaction, while a flat line reflects a lack of interaction between the proteins. […]

Chain of SOX18-RBPJ interaction (P35713 whole entry): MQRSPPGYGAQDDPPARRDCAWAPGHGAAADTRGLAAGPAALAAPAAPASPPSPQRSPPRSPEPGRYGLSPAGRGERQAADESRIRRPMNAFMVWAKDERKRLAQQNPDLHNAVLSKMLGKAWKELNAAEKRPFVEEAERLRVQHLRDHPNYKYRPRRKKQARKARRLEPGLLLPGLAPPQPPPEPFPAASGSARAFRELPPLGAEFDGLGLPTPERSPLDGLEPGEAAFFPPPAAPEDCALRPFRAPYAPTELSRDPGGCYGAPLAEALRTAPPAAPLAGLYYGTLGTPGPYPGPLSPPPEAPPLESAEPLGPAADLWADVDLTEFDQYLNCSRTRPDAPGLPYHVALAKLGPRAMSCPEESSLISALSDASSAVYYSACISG

Row | SMILES | SOX18-RBPJ protein-protein binding inhibition at 5 μM | IC50 (ALPHAScreen, read-out: SOX18-RBPJ interaction disruption IC50) [µM]
1 | CCN(CC)C(=O)c1c(O)cc(O)cc1CCc1ccc2ccccc2c1 [Sm26, N,N,diethyl-2,4-hydroxy-6-(2-(naphthalen-2-yl)ethyl)benzamide] | highly active; also recorded: moderately active | 
2 | O=C(O)c1ccccc1Nc1cccc(C(F)(F)F)c1 [Flufenamic acid, reference compound] |  | ~444
3 | Oc1cc(CCc2ccccc2)cc(O)c1O [Sm40, 5-phenethylbenzene-1,2,3-triol] | highly active | 
4 | COc1cc(C)cc(/C=C/c2ccc3ccccc3c2)c1C(=O)O [Sm34, (E)-2-methoxy-4-methyl-6-(2-(naphthalen-2-yl)vinyl)benzoic acid] | highly active | 
